This is an account of results in patent US9994554B2, “Barbiturate and thiobarbiturate compounds for use in cancer therapy” (NUHOPE, LLC, priority 2011, dated 2018).

Where only a bound is given, the exact number is not on record here.

In the experiment the test system is U87-MG cells. The experiment in a line: U87-MG resazurin cell assay (Example 13). The experiment is classed as cell-based. Conditions: Homo sapiens, U-87 MG; U87-MG, 5 days (120 hrs) incubation; read-out: Activity Score (Mean pXC50) (converted). As for the experimental part:
U87-MG cells were obtained from the ATCC, LGC Standards (#HTB-14). The cells were screened for mycoplasma (Mycoplasma Experience) and maintained in Biowhittaker Alpha MEM (Lonza #BE02-002F+10% dialyzed US FBS serum (Invitrogen #26400-044), 1% Penstrep (Gibco #15140-122).
Compounds to be tested were transferred into column 1 of a hit plate (96-well PPV Greiner #651201). 20 ul of DMSO was added to columns 2 to 11. The top concentration was 10 mM.
Serial dilution, ten-point one in three dilution curves were created using Perkin Elmer Janus (20 ul clear Robopack disposable tips #6000677 used).
2 ul of each of the compounds was transferred by pre-dispensing into black, clear bottom 96-well CellBIND Corning plates (Fisher #DPS-184-030R) using Platemate 2×2 (ThermoFisher Darts #5506).
200 μl of U87-MG cells were added to columns 1 to 11 at a density of 1000 cells per ml, and media only was dispensed into control column 12 using Wellmate (Small bore tubing set #201-30002).
After 5 days (120 hrs) incubation at 37° C. under 5% CO2 in a humidified incubator, the assay was “stopped” by addition of Resazurin sodium salt at 0.5 mM final concentration (Sigma R7017). The plates were incubated for a further 4 hrs before resorufin readout was taken from a Perkin Elmer EnVision, 550 nm excitation (photo550, Barcode 312), 580 nm emission (M580, Barcode 233), Top Mirror BODIPY (D555, Barcode 405).
For orientation: The colour change of resazurin is a common sign of viable cells or microbes.

For the compound `COc1ccccc1/C=C/C=C1C(=O)N(C)C(=O)N(C)C1=O` [DDD00175818], the IC50 was 1 to 10 µM.
As to `O=C1NC(=O)C(=C/C=C/c2ccccc2F)C(=O)N1` [DDD00175808], the IC50 was 1 to 10 µM.
The result for `CCN1C(=O)/C(=C/C=C/c2ccc(F)cc2)C(=O)NC1=S` [DDD00175840] reads 31.6 to 100 µM; that for `O=C1NC(=O)C(=C/C=C/c2cccc(Cl)c2)C(=O)N1` [DDD00175302], ≤ 1 µM; that for `O=C1NC(=O)C(=CC2CCCCC2)C(=O)N1` [DDD00175825], > 100 µM.
The result for `O=C1NC(=S)NC(=O)C1=C/C=C/c1ccccc1F` [DDD00197349] reads 1 to 10 µM.
Turning to `CCN1C(=O)NC(=O)/C(=C\C=C\c2ccc(F)cc2)C1=O` [DDD00175841], the IC50 was 1 to 10 µM.
With `CN1C(=O)C(=C/C=C/c2ccccc2N(C)C)C(=O)N(C)C1=O` [DDD00197338] the figure was 1 to 10 µM; with `O=C1NC(=O)C(=Cc2ccc(Cl)c(Cl)c2)C(=O)N1` [DDD00175836], > 100 µM; with `CCN1C(=O)C(=C/C=C/c2ccc(N(C)C)cc2)C(=O)N(CC)C1=S` [DDD00197342], 31.6 to 100 µM.
The result for `CCN1C(=O)/C(=C/C=C/c2cccc(F)c2)C(=O)NC1=S` [DDD00197354] reads 10 to 31.6 µM; that for `Cc1ccccc1/C=C/C=C1C(=O)NC(=S)NC1=O` [DDD00197329], 1 to 10 µM.
The result for `CN1C(=O)C(=C/C=C/c2cccc(F)c2)C(=O)N(C)C1=O` [DDD00197351] reads 1 to 10 µM.
On to `CCN1C(=O)C(=C/C=C/c2ccc(C)cc2)C(=O)N(CC)C1=S` [DDD00175807], for which the IC50 was 31.6 to 100 µM.
With `O=C1NC(=S)NC(=O)C1=C/C=C/c1cccc(F)c1` [DDD00197339] the figure was 1 to 10 µM; with `CCN1C(=O)NC(=O)/C(=C\C=C\c2cccc(Cl)c2)C1=O` [DDD00175297], ≤ 1 µM; with `O=C1NC(=O)C(=Cc2ccccn2)C(=O)N1` [DDD00175837], > 100 µM.
With `CN1C(=O)C(=CC2=Cc3cc(Cl)ccc3OC2)C(=O)N(C)C1=O` [DDD00175830] the figure was 31.6 to 100 µM; with `Cn1cc(/C=C/c2ccccc2)c(=O)n(C)c1=O` [DDD00197671], > 100 µM; with `O=C1NC(=O)C(=Cc2cccc(Cl)c2)C(=O)N1` [DDD00175823], > 100 µM.
Turning to `CCN1C(=O)NC(=O)/C(=C\C=C\c2ccccc2OC)C1=O` [DDD00175817], the IC50 was 1 to 10 µM.
The result for `O=C1NC(=O)C(=Cc2ccncc2)C(=O)N1` [DDD00175820] reads > 100 µM; that for `CN1C(=O)C(C(C)(O)/C=C/c2ccccc2)C(=O)N(C)C1=O` (stereo not drawn) [DDD00197352], > 100 µM; that for `N#Cc1ccc(/C=C/C=C2C(=O)NC(=S)NC2=O)cc1` [DDD00175806], 31.6 to 100 µM.
`COc1ccc(/C=C/C=C2C(=O)NC(=S)NC2=O)cc1` [DDD00175805]: the IC50 was 1 to 10 µM.
As for `CCN1C(=O)C(=C/C=C/c2ccc(OC)cc2)C(=O)N(CC)C1=S` [DDD00175800], the IC50 is 31.6 to 100 µM.
Consider `O=C1NC(=O)C(=C/C=C/c2cccnc2)C(=O)N1` [DDD00197336], for which the IC50 is 10 to 31.6 µM.
With `CCN1C(=O)NC(=O)/C(=C\C=C\c2ccc(N(C)C)cc2)C1=O` [DDD00175804], the IC50 is 1 to 10 µM.
For the compound `CCN1C(=O)/C(=C\C=C\c2ccccc2)C(=O)N(C2CCOCC2)C1=O` [DDD00175789], the IC50 is 1 to 10 µM.
On to `O=C1NC(=O)C(=Cc2ccc(F)cc2)C(=O)N1` [DDD00175831], for which the IC50 was > 100 µM.
The result for `CN1C(=O)C(=C/C=C/c2cccc(N(C)C)c2)C(=O)N(C)C1=O` [DDD00197346] reads 1 to 10 µM; that for `O=C1NC(=O)C(Cc2ccccc2)C(=O)N1` [DDD00175824], > 100 µM; that for `CCN1C(=O)C(=C/C=C/c2c(F)cccc2F)C(=O)N(CC)C1=S` [DDD00197345], 31.6 to 100 µM.
On to `O=C1NC(=O)C(=C/C=C/c2ccccc2[N+](=O)[O-])C(=O)N1` [DDD00175834], for which the IC50 was 1 to 10 µM.
With `CCN1C(=O)NC(=O)/C(=C\C=C\c2ccc(C)cc2)C1=O` [DDD00175801] the figure was 1 to 10 µM; with `COc1ccccc1/C=C/C=C1C(=O)NC(=S)NC1=O` [DDD00175819], 1 to 10 µM; with `O=C1NC(=O)C(=Cc2cccnc2)C(=O)N1` [DDD00175833], > 100 µM.
For `COc1ccccc1/C=C/C=C1C(=O)NC(=O)NC1=O` [DDD00175832], the IC50 was 1 to 10 µM.
In the case of `CN1C(=O)C(=C/C=C/c2ccccc2)C(=O)N(C)C1=O` [DDD00175285], the IC50 is 1 to 10 µM.
Turning to `O=C1NC(=O)C(=Cc2cccc(F)c2)C(=O)N1` [DDD00175822], the IC50 was > 100 µM.
In the case of `Cc1ccc(/C=C/C=C2C(=O)NC(=S)NC2=O)cc1` [DDD00175798], the IC50 was 1 to 10 µM.
The result for `CCN1C(=O)NC(=O)/C(=C\C=C\c2ccccc2C)C1=O` [DDD00175813] reads 1 to 10 µM; that for `COc1ccc2c(c1)OCC(C=C1C(=O)N(C)C(=O)N(C)C1=O)=C2` [DDD00175826], 31.6 to 100 µM.
With `CCN1C(=O)/C(=C/C=C/c2ccccc2C)C(=O)NC1=S` [DDD00197330], the IC50 was 1 to 10 µM.
With `CN(C)c1ccc(/C=C/C=C2C(=O)NC(=O)NC2=O)cc1` [DDD00175803] the figure was 10 to 31.6 µM; with `O=C1NC(=O)C(=C/C=C/c2ccccc2Cl)C(=O)N1` [DDD00175339], 1 to 10 µM.
As for `CCN1C(=O)NC(=O)/C(=C2\C=C(c3ccccc3)CCC2)C1=O` [DDD00175332], the IC50 is > 100 µM.
With `CCN1C(=O)C(=C/C=C/c2ccc(F)cc2)C(=O)N(CC)C1=S` [DDD00175839] the figure was 31.6 to 100 µM.
With `COc1cccc(C=C2C(=O)NC(=O)NC2=O)c1` [DDD00175827] the figure was > 100 µM; with `CCN1C(=O)NC(=O)/C(=C\C=C\c2ccccc2N(C)C)C1=O` [DDD00197344], 1 to 10 µM.
In the case of `Cc1ccccc1/C=C/C=C1C(=O)NC(=O)NC1=O` [DDD00175809], the IC50 is 1 to 10 µM.
With `CN(C)c1ccccc1/C=C/C=C1C(=O)NC(=O)NC1=O` [DDD00197357] the figure was 1 to 10 µM; with `O=C1NC(=O)C(=C/C=C/c2ccc(Cl)cc2)C(=O)N1` [DDD00175286], ≤ 1 µM; with `CCN1C(=O)NC(=O)/C(=C\C=C\c2cccc(F)c2)C1=O` [DDD00197347], 1 to 10 µM.
With `CCN1C(=O)C(=C/C=C/c2ccccc2OC)C(=O)N(CC)C1=S` [DDD00197350] the figure was 10 to 31.6 µM; with `O=C1NC(=O)C(=C/C=C/c2c(F)cccc2F)C(=O)N1` [DDD00197331], 1 to 10 µM; with `O=C1NC(=O)C(=Cc2ccccc2F)C(=O)N1` [DDD00175821], > 100 µM.
For `O=C1NC(=O)C(=CC2=Cc3ccccc3OC2)C(=O)N1` [DDD00175835], the IC50 was 31.6 to 100 µM.
As to `COc1ccc(/C=C/C=C2C(=O)N(C)C(=O)N(C)C2=O)cc1` [DDD00175794], the IC50 is 1 to 10 µM.
As to `CN(C)c1ccccc1/C=C/C=C1C(=O)NC(=S)NC1=O` [DDD00197337], the IC50 was 10 to 31.6 µM.
With `O=C1NC(=O)C(=C/C=C/c2ccc(Cl)cc2Cl)C(=O)N1` [DDD00175271] the figure was 1 to 10 µM; with `Cc1ccc(/C=C/C=C2C(=O)NC(=O)NC2=O)cc1` [DDD00175796], 1 to 10 µM.
The result for `O=C1NC(=O)C(=C/C=C/c2cccc(F)c2)C(=O)N1` [DDD00197332] reads 1 to 10 µM; that for `CCN1C(=O)C(=C/C=C/c2ccccc2C)C(=O)N(CC)C1=S` [DDD00175816], 10 to 31.6 µM; that for `N#Cc1ccc(/C=C/C=C2C(=O)NC(=O)NC2=O)cc1` [DDD00175802], 10 to 31.6 µM.
The result for `CN1C(=O)C(=Cc2c[nH]c3ccccc23)C(=O)N(C)C1=O` [DDD00175791] reads > 100 µM; that for `CCN1C(=O)C(=C/C=C/c2ccc(Cl)cc2)C(=O)N(CC)C1=S` [DDD00175281], 31.6 to 100 µM.
As for `CN1C(=O)C(=C/C=C/c2c(F)cccc2F)C(=O)N(C)C1=O` [DDD00197343], the IC50 is 1 to 10 µM.
Turning to `O=C1NC(=O)C(=Cc2c[nH]c3ccccc23)C(=O)N1` [DDD00175790], the IC50 was > 100 µM.
Turning to `CCN1C(=O)NC(=O)/C(=C\C=C\c2ccccc2F)C1=O` [DDD00175810], the IC50 was 1 to 10 µM.
With `CCN1C(=O)/C(=C\C=C\c2ccco2)C(=O)N(C2CCOCC2)C1=O` [DDD00175792] the figure was 10 to 31.6 µM; with `COc1ccc(C=C2C(=O)NC(=O)NC2=O)cc1` [DDD00175838], > 100 µM; with `O=C1NC(=O)C(=Cc2ccccc2)C(=O)N1` [DDD00175828], > 100 µM.
With `CN1C(=O)C(=C/C=C/C2CCCCC2)C(=O)N(C)C1=O` [DDD00197709] the figure was 10 to 31.6 µM; with `CN1C(=O)C(=C/C=C/c2ccccc2F)C(=O)N(C)C1=O` [DDD00175811], 1 to 10 µM.
Consider `CCN1C(=O)C(=C2C=C(c3ccccc3)CCC2)C(=O)N(CC)C1=S` [DDD00175338], for which the IC50 is > 100 µM.
For the compound `O=C1NC(=O)C(=C/C=C/c2ccc(F)cc2)C(=O)N1` [DDD00175842], the IC50 is 1 to 10 µM.
With `COc1ccc(/C=C/C=C2C(=O)NC(=O)NC2=O)cc1` [DDD00175799], the IC50 is 1 to 10 µM.
